In this assay the test system is candida albicans. The assay can be described thus: Candida albicans challenge (log reduction). The assay is classed as cell-based. Conditions: components applied separately at the same concentrations (400 ppm chlorite; 100 ppm hydrogen peroxide).

Consider two compounds from US20150056272A1, “Synergistic Antimicrobial Preparations Containing Chlorite and Hydrogen Peroxide” (S.K. Pharmaceuticals, Inc., priority 1998, published 2015).

On to `OO` [hydrogen peroxide], for which the “effect on candida albicans activity” value was “ineffective”.
With chlorite the entry was “ineffective”.
